US6407081B1, “Method for inhibiting cytokine production by cells” (Previsan AG, priority 1997, dated 2002)

Tests used:
IL-2 [1] = assay: IL-2 production by purified T lymphocytes (Example 3); format: cell-based, human; settings: mean of 2 donors
Description: PBMC from three healthy donors are purified by density gradient […] (LymphoPrep). The T lymphocytes are obtained from 15.10^6 PBMC incubated for 20 to 30 minutes in a waterbath at 37° C. with 0.8 ml of a mixture of LymphoKwik® (One Lambda, Inc., CA, USA). This latter substance is a mixture of complement and specific antibody for antigen units of the cell membrane which lyses the unwanted cells (B lymphocytes, monocytes, etc.). The cells are centrifuged and then washed twice.
These cultures are treated with various concentrations of ADA.
(§1) In Examples 3 and 4, the results are stated as a percentage taking the medium without ADA as 100%. The concentrations corresponding to 100% are respectively 90,000 pg/ml for IL-2, 1100 pg/ml for IL-5, 1900 pg/ml for IFN-γ and 2870 pg/ml for TNF-α. The results are the mean of independent ELISA assays.

IL-5 [2] = assay: IL-5 production by purified CD4 T lymphocytes stimulated by PMA + anti-CD28 (Example 4); format: cell-based, human; settings: for IL-5 in % relative to control: purified CD4 T lymphocytes, PMA + anti-CD28, 1 donor
Description: Purified CD4 T lymphocytes (90% purity) stimulated by PMA (phorbol myristate acetate)+anti-CD28 antibodies from healthy donors are treated with various concentrations of ADA.
as §1

IL-2 [3] = assay: In vivo serum IL-2 release after anti-CD3 145-2C11 mAb (Example 5); design: species or system BALB/C mice; settings: ADA 100 mg/kg single injection one day before 145-2C11 mAb; sera at 2, 4, 8, 24 h; FIG. 1
Description: A single intraparenteral injection of azodicarbon-amide (ADA) at a dose of 100 mg/kg bodyweight or corresponding carrier is made into BALB/C mice (Harlan, Zeist, Netherlands) one day before intraparenteral inoculation of 25 μg of hamster 145-2C11 mAb, an anti-mouse CD3 mAb which brings about massive in vivo activation of polyclonal T cells, resulting in systemic cytokine release. Sera are collected 2, 4, 8 and 24 hours after the anti-CD3 treatment and the cytokine (IL-2, IL-4) levels are determined by an ELISA test (Genzyme).
FIGS. 1 and 2 are graphs showing, on the y-axis, the quantities of IL-2 and IL-4 in the serum as a mean of 5 test animals. […] The empty bars show the results obtained with the carrier and the shaded bars show those obtained with prior ADA treatment.

IL-5 [4] = assay: IL-5 production by PHA-activated PBMC, ELISA (Example 1); format: cell-based, human; settings: for production of IL-5 inhibited, on average: average of five donors, PBMC; for IL-5 content as a percentage of the control: PHA-activated PBMC, 72 h
Description: Peripheral mononuclear blood cells (PMBC) from five healthy human donors are isolated in the conventional manner from 50 ml of their blood and then purified by density gradient centrifugation (Lymphoprep). The cells (5.10^6 cells/ml) are activated by 0.3 μg/ml of phytohaemagglutinin (PHA) and cultured for 72 hours at 37° C. in the presence of various concentrations of ADA (20, 10, 5, 1, 0.2 and 0.04 μg/ml). The culture medium consists of RPMI 1640 complemented with 10% foetal calf serum and glutamine and contains mercaptoethanol. The ADA solutions are prepared in dimethyl sulfoxide (DMSO), the working concentration of DMSO during the experiments being 0.1%. Said experiments are performed on 96 well plates (200 μl/well) and, once the plates have been centrifuged at 1500 revolutions per minute for 10 minutes, the supernatants are harvested and the IL-5 content thereof analysed by an ELISA immunoenzymatic assay.

IFN-γ = IFN-γ production by splenocytes of ovalbumin-sensitised rats treated orally (Example 8); format: in vivo, Brown-Norway rats; settings: ADA orally 500 and 1000 mg/kg twice daily, FIG. 4
Description: Brown-Norway rats are actively sensitised with 5% ovalbumin in 0.9% NaCl. 24 hours later, bronchial reactivity to metacholine is measured on the anaesthetised rats. Immediately measurement of bronchial reactivity is complete, splenocytes are taken from these rats and cultured to determine IFN-γ production by these cells.
ADA is administered 24 hours before the beginning of the ovalbumin sensitisation phase and daily throughout the duration of the test, except for the days of the measurements. The ADA is administered orally in suspension in 1% methylcellulose at a twice daily dosage of 500 mg/kg and 1000 mg/kg bodyweight.
The quantities of IFN-γ are plotted on the y-axis in pg/mg of protein. On the x-axis, the empty bars A to F correspond to the following experiments: […]

skin allograft = assay: Skin allograft rejection (Example 6); format: in vivo, C57BL/6 mice; settings: ADA 50 mg/kg daily injection vs carrier control; FIG. 3
Description: Skin grafts, which are well known to be highly dependent upon T cells, are prepared from the tails of four female C57BL/6. CH-2^bm12 mice (Jackson Laboratory, Bar Harbor, Me., USA). These grafts are grafted onto the sides of C57BL/6 mice (Harlan, Zeist, Netherlands). A dressing is applied around the hole. This dressing is removed 10 days later and the grafts are inspected daily. The test mice receive a daily intraparenteral injection of 50 mg/kg bodyweight of ADA and the controls receive an equivalent quantity of the corresponding carrier until acute rejection is observed.
On the graph in FIG. 3, survival of the skin graft is plotted, in %, on the y-axis, while the number of days since the transplant is plotted on the x-axis.

NC(=O)N=NC(N)=O [ADA, azodicarbon-amide]
IL-2 in % relative to control (IL-2 [1]; ADA 1 μg/ml): 68 % relative to control
IL-2 in % relative to control (IL-2 [1]; ADA 5 μg/ml): 27 % relative to control
IL-2 in % relative to control (IL-2 [1]; ADA 10 μg/ml): 9 % relative to control
IL-2 in % relative to control (IL-2 [1]; ADA 20 μg/ml): 3 % relative to control
production of IL-5 (IL-5 [2]; 20 μg/ml of ADA, donors of Examples 3 and 4): inhibited
IL-5 in % relative to control (IL-5 [2]; ADA 1 μg/ml): 69 % relative to control
IL-5 in % relative to control (IL-5 [2]; ADA 5 μg/ml): 45 % relative to control
IL-5 in % relative to control (IL-5 [2]; ADA 10 μg/ml): 43 % relative to control
IL-5 in % relative to control (IL-5 [2]; ADA 20 μg/ml): 38 % relative to control
release of IL-2 into serum (IL-2 [3]): significant reduction
production of IL-5 inhibited, on average (IL-5 [4]; 0.2 μg/ml of ADA): 45%
production of IL-5 inhibited, on average (IL-5 [4]; 10 μg/ml of ADA): 80%
production of IL-5 inhibited, on average (IL-5 [4]; 20 μg/ml of ADA): 90%
IL-5 content as a percentage of the control (IL-5 [4]; ADA 0.04 μg/ml, Donor 1): 83 % of control
IL-5 content as a percentage of the control (IL-5 [4]; ADA 0.04 μg/ml, Donor 2): 50 % of control
IL-5 content as a percentage of the control (IL-5 [4]; ADA 0.04 μg/ml, Donor 3): 58 % of control
IL-5 content as a percentage of the control (IL-5 [4]; ADA 0.04 μg/ml, Donor 4): 46 % of control
IL-5 content as a percentage of the control (IL-5 [4]; ADA 0.04 μg/ml, Donor 5): 55 % of control
IL-5 content as a percentage of the control (IL-5 [4]; ADA 0.04 μg/ml, Mean of donors): 58 % of control
IL-5 content as a percentage of the control (IL-5 [4]; ADA 0.2 μg/ml, Donor 1): 54 % of control
IL-5 content as a percentage of the control (IL-5 [4]; ADA 0.2 μg/ml, Donor 2): 42 % of control
IL-5 content as a percentage of the control (IL-5 [4]; ADA 0.2 μg/ml, Donor 3): 63 % of control
IL-5 content as a percentage of the control (IL-5 [4]; ADA 0.2 μg/ml, Donor 4): 57 % of control
IL-5 content as a percentage of the control (IL-5 [4]; ADA 0.2 μg/ml, Donor 5): 58 % of control
IL-5 content as a percentage of the control (IL-5 [4]; ADA 0.2 μg/ml, Mean of donors): 55 % of control
IL-5 content as a percentage of the control (IL-5 [4]; ADA 1 μg/ml, Donor 1): 48 % of control
IL-5 content as a percentage of the control (IL-5 [4]; ADA 1 μg/ml, Donor 2): 29 % of control
IL-5 content as a percentage of the control (IL-5 [4]; ADA 1 μg/ml, Donor 3): 57 % of control
IL-5 content as a percentage of the control (IL-5 [4]; ADA 1 μg/ml, Donor 4): 37 % of control
IL-5 content as a percentage of the control (IL-5 [4]; ADA 1 μg/ml, Donor 5): 49 % of control
IL-5 content as a percentage of the control (IL-5 [4]; ADA 1 μg/ml, Mean of donors): 44 % of control
IL-5 content as a percentage of the control (IL-5 [4]; ADA 5 μg/ml, Donor 1): 44 % of control
IL-5 content as a percentage of the control (IL-5 [4]; ADA 5 μg/ml, Donor 2): 2 % of control
IL-5 content as a percentage of the control (IL-5 [4]; ADA 5 μg/ml, Donor 3): 23 % of control
IL-5 content as a percentage of the control (IL-5 [4]; ADA 5 μg/ml, Donor 4): 31 % of control
IL-5 content as a percentage of the control (IL-5 [4]; ADA 5 μg/ml, Donor 5): 34 % of control
IL-5 content as a percentage of the control (IL-5 [4]; ADA 5 μg/ml, Mean of donors): 27 % of control
IL-5 content as a percentage of the control (IL-5 [4]; ADA 10 μg/ml, Donor 1): 29 % of control
IL-5 content as a percentage of the control (IL-5 [4]; ADA 10 μg/ml, Donor 2): 2 % of control
IL-5 content as a percentage of the control (IL-5 [4]; ADA 10 μg/ml, Donor 3): 28 % of control
IL-5 content as a percentage of the control (IL-5 [4]; ADA 10 μg/ml, Donor 4): 14 % of control
IL-5 content as a percentage of the control (IL-5 [4]; ADA 10 μg/ml, Donor 5): 31 % of control
IL-5 content as a percentage of the control (IL-5 [4]; ADA 10 μg/ml, Mean of donors): 21 % of control
IL-5 content as a percentage of the control (IL-5 [4]; ADA 20 μg/ml, Donor 1): 9 % of control
IL-5 content as a percentage of the control (IL-5 [4]; ADA 20 μg/ml, Donor 2): 2 % of control
IL-5 content as a percentage of the control (IL-5 [4]; ADA 20 μg/ml, Donor 3): 26 % of control
IL-5 content as a percentage of the control (IL-5 [4]; ADA 20 μg/ml, Donor 4): 5 % of control
IL-5 content as a percentage of the control (IL-5 [4]; ADA 20 μg/ml, Donor 5): 7 % of control
IL-5 content as a percentage of the control (IL-5 [4]; ADA 20 μg/ml, Mean of donors): 10 % of control
IL-5 production, comparable tests in the absence of mercaptoethanol (IL-5 [4]; culture medium without mercaptoethanol, compared with Table 1): relatively similar results
production of INF-γ by splenocytes (IFN-γ): inhibitory effect
rejection of the skin allograft (skin allograft): significantly delayed
